Laboratory results published in patent publication US11517568B2, “Compounds and methods for treating nematode infections” (The Governing Council of The University of Toronto, priority 2018, dated 2022).
Where two headings read alike, the source gives them in different places.

Experiments:
C. elegans [1] = experiment: Forward genetic screens for mutants resisting early larval lethal effects; format: in vivo, Caenorhabditis elegans; details: over 200,000 F1 and over 100,000 F2 animals screened
Procedure: Forward genetic screens were performed for mutants that can resist the early larval lethal effects of compound Ic and compound Id. Over 200,000 F1 animals and over 100,000 F2 animals from randomly mutagenized parents/grandparents were screened.

[2] = system: wild type fourth-stage C. elegans larvae (L4s); experiment: Locomotory defects (coiled and/or paralysis) in wild type fourth-stage C. elegans larvae on solid substrate; format: in vivo, Caenorhabditis elegans; details: for Activity (%): percent of animals that show coiled and/or paralysis: 60 μM, after 60 min on solid substrate, L4 C. elegans
Procedure: A preliminary first round of SAR analyses using analogs of exemplary compound Ia was performed and the analogs' ability to induce locomotory defects in wild type fourth-stage C. elegans larvae (L4s) was tested.
If phenotype is observed, a dose-response analysis is performed.

L3 animals = experiment: Abnormal locomotory behaviour of L3 animals on solid agar (extended SAR); format: in vivo, Caenorhabditis elegans; details: for % any phene 1 h (conc.) 3.75 / % any phene 6 h (conc.) 3.75 / % any phene 24 h (conc.) 3.75: 3.75 uM; for % any phene 1 h (conc.) 3.75 / % any phene 1 h (conc.) 15 / % any phene 1 h (conc.) 60: 1 h exposure; for % any phene 1 h (conc.) 3.75 / % any phene 6 h (conc.) 3.75 / % any phene 24 h (conc.) 3.75 / % any phene 1 h (conc.) 15 / % any phene 6 h (conc.) 15 / % any phene 24 h (conc.) 15 / % any phene 1 h (conc.) 60 / % any phene 6 h (conc.) 60 / % any phene 24 h (conc.) 60: L3, mean of 4 replicates; for % any phene 6 h (conc.) 3.75 / % any phene 6 h (conc.) 15 / % any phene 6 h (conc.) 60: 6 h exposure; for % any phene 24 h (conc.) 3.75 / % any phene 24 h (conc.) 15 / % any phene 24 h (conc.) 60: 24 h exposure; for % any phene 1 h (conc.) 15 / % any phene 6 h (conc.) 15 / % any phene 24 h (conc.) 15: 15 uM; for % any phene 1 h (conc.) 60 / % any phene 6 h (conc.) 60 / % any phene 24 h (conc.) 60: 60 uM; for pest or weed control at 3.75 µM / pest or weed control at 15 µM / pest or weed control at 60 µM: Caenorhabditis elegans
Procedure: 20 animals were scored after either 1, 6 or 24 hours of exposure to drug (as indicated) per replicate. […] Data are reported as the mean % of animals with abnormal phenotype over 4 independent replicates.

wild type C. elegans = experiment: Manual monitoring of locomotion phenotype of wild type C. elegans on solid agar containing the small molecule; format: in vivo, Caenorhabditis elegans; details: for locomotory phenotype induced: solid agar substrate
Excerpt: The ability of the 64 Egl hits to modulate the normal sinusoidal locomotion of wild type C. elegans was then examined. The animal's behaviour over the course of several hours was manually monitored while the animal moved atop a solid agar substrate containing the small molecule. Many different genes govern the sinusoidal locomotion of wild type C. elegans, but their mutation can lead to qualitatively distinct locomotory phenotypes.

fish = experiment: Dose-response analysis in fish, cardiac defects; format: in vivo
HEK293 cells = experiment: HEK293 cell proliferation, Celltiter Blue Cell Viability Assay; format: cell-based; details: dose-response, 48 hours, triplicates
Procedure: A cytotoxic formulation was used as positive control. Experiments were performed in triplicates on different days. […] Error bars indicate standard deviation.

C. elegans [3] = experiment: Suppression of aldicarb-induced paralysis in C. elegans; format: in vivo; details: Caenorhabditis elegans
Procedure: Whether exemplary compound Ia can suppress the paralysis that is induced by aldicarb was tested. Aldicarb inhibits acetylcholinesterase, which normally catabolizes ACh at the synaptic cleft. […] Aldicarb treatment therefore results in excess ACh and paralyzes the animal due to excess muscle contraction. If exemplary compound Ia inhibits UNC-17 and results in lower levels of ACh at the synaptic cleft, then exemplary compound Ia should reduce aldicarb-induced paralysis.

[4] = system: UNC-17 (VAChT), unc-17 mutant strains; format: in vivo, Caenorhabditis elegans; details: p=0.001
[5] = 1 h, read-out: % any phene 1 h (conc.) 3.75
[6] = 1 h, read-out: % any phene 1 h (conc.) 15
[7] = 1 h, read-out: % any phene 1 h (conc.) 60
[8] = 6 h, read-out: % any phene 6 h (conc.) 3.75
[9] = 6 h, read-out: % any phene 6 h (conc.) 15
[10] = 6 h, read-out: % any phene 6 h (conc.) 60
[11] = 24 h, read-out: % any phene 24 h (conc.) 3.75
[12] = 24 h, read-out: % any phene 24 h (conc.) 15
[13] = 24 h, read-out: % any phene 24 h (conc.) 60

Row | SMILES | Activity (%): percent of animals that show coiled and/or paralysis [2] | % any phene 1 h (conc.) 3.75 (L3 animals) [%] | % any phene 6 h (conc.) 3.75 (L3 animals) [%] | % any phene 24 h (conc.) 3.75 (L3 animals) [%] | % any phene 1 h (conc.) 15 (L3 animals) [%] | % any phene 6 h (conc.) 15 (L3 animals) [%] | % any phene 24 h (conc.) 15 (L3 animals) [%] | % any phene 1 h (conc.) 60 (L3 animals) [%] | % any phene 6 h (conc.) 60 (L3 animals) [%] | % any phene 24 h (conc.) 60 (L3 animals) [%] | locomotory phenotype induced (wild type C. elegans) | cardiac defects in fish (fish) | pest or weed control at 3.75 µM (L3 animals; [5]) [%] | pest or weed control at 15 µM (L3 animals; [6]) [%] | pest or weed control at 60 µM (L3 animals; [7]) [%] | pest or weed control at 3.75 µM (L3 animals; [8]) [%] | pest or weed control at 15 µM (L3 animals; [9]) [%] | pest or weed control at 60 µM (L3 animals; [10]) [%] | pest or weed control at 3.75 µM (L3 animals; [11]) [%] | pest or weed control at 15 µM (L3 animals; [12]) [%] | further results
1 | O=[N+]([O-])c1ccc(N2CCN(CC3CC4C=CC3C4)CC2)cc1 (stereo not drawn) [Compound Id] | 0.00% | 19.2 | 5.8 | 0.0 | 65.5 | 36.7 | 45.0 | 95.8 | 100.0 | 95.8 | ‘jerky-unc’ phenotype |  |  |  |  |  |  |  |  |  | mutants resisting early larval lethal effects (C. elegans [1]): No mutants that could resist the lethal effects
2 | O=[N+]([O-])c1ccc(N2CCN(CC3CC=CCC3)CC2)cc1 (stereo not drawn) [Ie] | 19% +/− 8.0 | 15.0 | 0.0 | 0.0 | 45.0 | 56.7 | 0.0 | 94.2 | 80.8 | 57.5 | ‘severe’ snake-like coiler phenotype and paralysis | strongest cardiac defects |  |  |  |  |  |  |  |  | 
3 | O=[N+]([O-])c1ccc(N2CCN(CC3CCCCC3)CC2)cc1 [Compound Ia] | 90% +/− 5.4 |  |  |  |  |  |  |  |  |  |  | weakest cardiac defects | 42.5 | 91 | 100 | 22.5 | 64.2 | 100 | 0 | 34.2 | effect on HEK293 cell proliferation (HEK293 cells): no effect; EC50 ([2]; Caenorhabditis elegans, read-out: EC50 (coiled and/or paralysis, dose-response)): 12.8 µM; pest or weed control at 60 µM (L3 animals; [13]): 80%; EC50 (C. elegans [3]): 4.81 µM; potency for inducing locomotory defects in worms relative to vesamicol (wild type C. elegans; compared with vesamicol): more than 30 times
4 | O[C@@H]1CCCC[C@H]1N1CCC(c2ccccc2)CC1 (racemic) [Vesamicol, reference compound] | 6% +/− 0.1 |  |  |  |  |  |  |  |  |  | jerky-unc and coiling, but only at concentrations close to its limit of solubility |  | 0 | 0 | 11.7 | 0 | 0.8 | 1.7 | 0 | 0 | sensitivity of unc-17(md414) (C370Y) mutant [4]: partially resistant; pest or weed control at 60 µM (L3 animals; [13]): 0%
